Inhibition data for 29 compounds are collected here from patent US10940139B2, “Compounds that interact with the Ras superfamily for the treatment of cancers, inflammatory diseases, rasopathies, and fibrotic disease” (Shy Therapeutics LLC, priority 2017, dated 2021).

Structures are written as SMILES.

One experiment deals with MAPK phosphorylation in PANC-1 pancreatic cancer cell line. The experiment in a line: MAPK cell-based phosphorylation assay (cell-direct ELISA, EGF stimulation). Conditions: Homo sapiens, * = tested at 10 μM. The method in brief:
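Cell-direct ELISA measured phospho-MAPK, with fluorescence read at 595 nm from AmpliFlu Red. Before fixation, PANC-1 cells starved overnight received 6 hours of compound (30 μM single dose or serial dilutions, 0.3% DMSO, 37° C), followed by 1.5 ng/ml EGF for 15 min.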
(ELISA stands for enzyme-linked immunosorbent assay.)
Turning to `COc1nc(-c2ccccn2)nc2c(C3CCCC3)csc12` [drawing 1244], the inhibition – broadly, the share of the control response that was lost under treatment – at 10 µM fell in the range of 1 to 25%.

`Cc1sc2c(O)nc(-c3nccn3C)nc2c1-c1ccc(F)cc1F` [drawing 1381] came in with an inhibition at 10 µM of 0%.

For the compound `COc1ccc(-c2c(-c3ccccc3)sc3c(O)nc(-c4nccn4C)nc23)cn1` [drawing 1353], the inhibition at 10 µM lay within 51 to 75%.

Consider `Oc1cccc(-c2csc3c(O)nc(-c4ccccn4)nc23)n1` [drawing 1259], for which the inhibition at 10 µM was 51 to 75%.

The compound `COCCNc1nc(-c2ccncn2)nc2sc(-c3ccccc3)c(-c3ccccc3)c12` [drawing 1334] returned an inhibition at 10 µM of 1 to 25%.

With `Cc1ccc(-c2csc3c(O)nc(-c4ccccn4)nc23)cc1` [drawing 1320], the inhibition at 10 µM was in the range of 1 to 25%.

Take `O=C(c1cc2nc(-c3ccccn3)nc(O)c2s1)N1CCN(c2ccccc2)CC1` [drawing 1188]: the inhibition at 10 µM is 1 to 25%.

Compound `Nc1nc(O)c2sc(-c3cccc(C(=O)NC4CCNC4=O)c3)cc2n1` (centres unmarked) [drawing 1302] showed an inhibition at 10 µM of 0%.

`Cc1sc2c(O)nc(-c3ccccn3)nc2c1C(=O)N1CCN(c2ccccc2)CC1C` (centres unmarked) [drawing 1270] returned an inhibition at 10 µM of 1 to 25%.

The compound `COc1cnc(CNC(=O)c2csc3nc(-c4ccccn4)nc(N)c23)[nH]c1=O` [drawing 1277] came in with an inhibition at 10 µM of 25 to 50%.

Consider `O=C(COCc1ccncc1)Nc1nc(-c2ccccn2)nc2sccc12` [drawing 1185], for which the inhibition at 10 µM was 1 to 25%.

In turn, `COCC(C)Nc1nc(-c2nccn2C)nc2sc(-c3ccccc3)c(-c3ccccc3)c12` (centres unmarked) [drawing 1337] yielded an inhibition at 10 µM of 76 to 100%.

In turn, `O=C(NCCc1ccncn1)c1csc2nc(-c3ccccn3)nc(N3CCOCC3)c12` [drawing 1261] showed an inhibition at 10 µM of 0%.

The experiment is the same for the next values; noted with them: Homo sapiens, at 30 μM.
Turning to `COc1ccccc1C1CN(C(=O)c2csc3c(O)nc(-c4ccccn4)nc23)CCO1` (centres unmarked) [drawing 1148], the inhibition at 30 µM was 1 to 25%.

Compound `COc1cc(N2CCN(C(=O)c3csc4c(O)nc(-c5ccccn5)nc34)CC2)cc(OC)c1OC` [drawing 1141] showed an inhibition at 30 µM of 1 to 25%.

As to `N#Cc1cccc(N2CCN(C(=O)c3csc4c(O)nc(-c5ccccn5)nc34)CC2)c1` [drawing 1139], the inhibition at 30 µM was in the range of 1 to 25%.

`CC(=O)N1CCN(c2nc(-c3ccccn3)nc3scc(-c4ccccc4)c23)CC1` [drawing 1109] had an inhibition at 30 µM of 25 to 50%.

Regarding `COc1ccc(CN(CC[S+]([O-])c2cc(Cl)ccc2Cl)C2CC2)cc1` (centres unmarked) [drawing 1050], the inhibition at 30 µM lay in the range of 25 to 50%.

With `COCCN(CCOC)c1nc(-c2ccccn2)nc2scc(C(=O)NCCc3cnc(O)nc3)c12` [drawing 1171], the inhibition at 30 µM fell in the range of 25 to 50%.

In turn, `O=C(c1ccc(=O)[nH]n1)N1CCCc2c(O)nc(-c3ccccn3)nc21` [drawing 1059] had an inhibition at 30 µM of 1 to 25%.

The compound `O=C(Nc1nc(-c2ccccn2)cs1)C1CC(=O)N(c2ccc3c(c2)OCCO3)C1` (centres unmarked) [drawing 1031] registered an inhibition at 30 µM of 25 to 50%.

Compound `O=C(NCCc1cccnc1)c1csc2c(O)nc(-c3ccccn3)nc12` [drawing 1071] had an inhibition at 30 µM of 1 to 25%.

Consider `COc1cc(N2CCN(C(=O)c3csc4c(O)nc(-c5ccccn5)nc34)CC2)ccc1O` [drawing 1179], for which the inhibition at 30 µM was in the range of 25 to 50%.

Turning to `CCCNC(=O)CN1CCN(c2nc(-c3ccccn3)nc3sc(-c4ccccc4)cc23)CC1` [drawing 1086], the inhibition at 30 µM lay within 76 to 100%.

`O=C(c1csc2c(O)nc(-c3ccccn3)nc12)N1CCNC(c2ccc(F)cc2)C1` (centres unmarked) [drawing 1167]: the inhibition at 30 µM was 1 to 25%.

Compound `O=C(Nc1nnc(-c2ccccn2)[nH]1)C1CCCN(c2ncccn2)C1` (centres unmarked) [drawing 1015] yielded an inhibition at 30 µM of 1 to 25%.

Turning to `CC(C)(C(=O)Nc1nc(-c2ccccn2)nc2sccc12)c1ccc(C#N)cc1` [drawing 1136], the inhibition at 30 µM was 1 to 25%.

As for `O=C(C1CCN(c2nc(-c3ccccn3)nc3scc(-c4ccccc4)c23)CC1)N1CCCCC1` [drawing 1105], the inhibition at 30 µM fell in the range of 1 to 25%.

For the compound `CNC(=O)CN1CCN(c2nc(-c3ccccn3)nc3scc(-c4ccccc4)c23)CC1` [drawing 1092], the inhibition at 30 µM was 1 to 25%.
